Read-outs that look alike come from different tables or passages of the source.
Tests used:
[1] = molecular target: T1, MCR-1 (Homo sapiens, UniProt Q01726); test: Melanocortin receptor binding assay, competition with 125I-HP 467, HEK 293 cells expressing hMCR-1; settings: inhibition of binding of 125I-HP 467, HEK 293 cells expressing MCR-1; for IC50: read-out: MC-1 IC50
T1 construct: expressed in transfected cells; host or cells: HEK 293
How it was run: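 Test compounds compete on intact HEK 293 cells carrying hMCR-1 (2×10^4 per tube) or hMCR-4 (4×10^3 per tube), suspended in PBS, 10% calf serum, 1 mM CaCl2.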

[2] = molecular target: T2, MCR-4 (Homo sapiens, UniProt P32245); test: Melanocortin receptor binding assay, competition with 125I-HP 467, HEK 293 cells expressing hMCR-4; settings: inhibition of binding of 125I-HP 467, HEK 293 cells expressing MCR-4; for IC50: read-out: MC-4 IC50
T2 construct: expressed in transfected cells; host or cells: HEK 293
Experimental: All cell culture media and reagents were obtained from GibcoBRL (Gaithersburg Md.), except for COSMIC CALF SERUM (HyClone; Logan Utah).
Cells were suspended in PBS, 10% COSMIC CALF SERUM and 1 mM CaCl2. Cell suspensions were prepared at a density of 2×10^4 cells/ml for HEK 293 cells expressing hMCR-3, hMCR-4 or hMCR-5, and 1×10^5 cells/ml for HEK 293 cells expressing hMCR-1. Suspensions were placed in a water bath and allowed to warm to 37° C. for 1 hr.
Binding assays were performed in a total volume of 250 μl for HEK 293 cells. […] To each tube was added 4×10^3 HEK 293 cells expressing hMCR-3, hMCR-4 or hMCR-5, or 2×10^4 cells expressing hMCR-1. Assays were incubated for 2.5 hr at 37° C.
GF/B filter plates were prepared by soaking for at least one hour in 5 mg/ml BSA and 10 mM CaCl2. Assays were filtered using a Brandel 96-well cell harvester (Brandel Inc.; Gaithersburg, Md.). The filters were washed four times with cold 50 mM Tris, pH 7.4, the filter plates were dehydrated for 2 hr and 35 μl of MICROSCINT was added to each well. Filter plates were counted using a Packard Topcount (Packard Instrument Co.) and data analyzed using GraphPad PRISM v2.0 (GraphPad Software Inc.; San Diego Calif.) and Microsoft EXCEL v5.0a (Microsoft Corp.; Redmond Wash.).
To assay isoquinoline compounds, binding assays were performed in duplicate in a 96 well format. […] A 0.2 ml aliquot of suspended cells was added to each well to give the cell numbers indicate above, and the cells were incubated at 37° C. for 2.5 hr. Cells were harvested on GF/B filter plates as described above and counted.

T2 sequence (P32245 whole entry): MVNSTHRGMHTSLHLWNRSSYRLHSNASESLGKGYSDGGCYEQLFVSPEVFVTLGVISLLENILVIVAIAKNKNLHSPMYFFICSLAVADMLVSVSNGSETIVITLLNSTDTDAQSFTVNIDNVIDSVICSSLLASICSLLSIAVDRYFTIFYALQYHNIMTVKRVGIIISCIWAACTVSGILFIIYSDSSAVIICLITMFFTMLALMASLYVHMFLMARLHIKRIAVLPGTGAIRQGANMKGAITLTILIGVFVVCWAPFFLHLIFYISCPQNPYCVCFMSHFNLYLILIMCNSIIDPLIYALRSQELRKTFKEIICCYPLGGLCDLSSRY
T1 sequence (Q01726 whole entry): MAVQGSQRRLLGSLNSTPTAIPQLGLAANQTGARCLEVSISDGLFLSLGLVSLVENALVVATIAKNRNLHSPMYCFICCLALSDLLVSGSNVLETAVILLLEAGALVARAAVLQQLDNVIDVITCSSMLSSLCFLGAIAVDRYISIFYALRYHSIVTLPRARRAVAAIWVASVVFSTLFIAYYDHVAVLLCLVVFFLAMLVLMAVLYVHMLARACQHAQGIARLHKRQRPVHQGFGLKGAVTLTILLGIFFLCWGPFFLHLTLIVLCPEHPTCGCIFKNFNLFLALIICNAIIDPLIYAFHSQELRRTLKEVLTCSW

| SMILES | IC50 ([1]; TRG 2414 library) [µM] | IC50 ([2]; TRG 2414 library) [µM] | also measured |
| --- | --- | --- | --- |
| NCC(CCCCN1Cc2ccccc2C(CNCCc2ccc(O)cc2)C1c1cc(C(F)(F)F)cc(C(F)(F)F)c1)NCc1ccc(Br)cc1 (mixture of isomers) [TRG 2421-8] | – | – | IC50 [1]: 5 µM; IC50 [2]: 5.99 µM |
| COc1ccc(CCNCC2c3ccccc3CN(CCCCC(CN)NCc3ccc(C)cc3)C2c2cc(C(F)(F)F)cc(C(F)(F)F)c2)cc1OC (mixture of isomers) [TRG 2421-17] | – | – | IC50 [1]: 2.06 µM; IC50 [2]: 0.83 µM |
| CCNc1ccc(C2C(CN)c3ccccc3CN2CCC[C@@H](CN)NCCCCOc2ccccc2)cc1 (stereo partly drawn) [2424#2] | – | – | IC50 [1]: 0.05 µM; IC50 [2]: 7.77 µM |
| CCNc1ccc(C2C(CNCCc3ccccc3)c3ccccc3CN2CCC[C@@H](CN)NCCCCOc2ccccc2)cc1 (stereo partly drawn) [2424#5] | – | – | IC50 [1]: 0.05 µM; IC50 [2]: 1.51 µM |
| CCNc1ccc(C2C(CN)c3ccccc3CN2CCCC[C@@H](CN)NCCCCOc2ccccc2)cc1 (stereo partly drawn) [2424#8] | – | – | IC50 [1]: 0.22 µM; IC50 [2]: 5.18 µM |
| CCNc1ccc(C2C(CNCCc3ccccc3)c3ccccc3CN2CCCC[C@@H](CN)NCCCCOc2ccccc2)cc1 (stereo partly drawn) [2424#11] | – | – | IC50 [1]: 0.21 µM; IC50 [2]: 3.52 µM |
| CCCOc1ccc(C2C(CNCCc3ccc(OC)cc3)c3ccccc3CN2CCCCC(N)CN)cc1 (stereo not drawn) [Cmpd 185] | 0.542 | 4.26 | – |
| CCCOc1ccc(C2C(CNCCc3ccc(OC)cc3)c3ccccc3CN2CCCCC(CN)NCCc2ccccc2)cc1 (stereo not drawn) [Cmpd 186] | 2.81 | 8.09 | – |
| CCCOc1ccc(C2C(CNCCc3ccc(OC)cc3)c3ccccc3CN2CCCCC(CN)NCc2ccccc2)cc1 (stereo not drawn) [Cmpd 187] | 1.07 | 1.47 | – |
| CCCOc1ccc(C2C(CNCCc3ccc(OC)cc3)c3ccccc3CN2CCCCC(CN)NCC(C)c2ccc(CC(C)C)cc2)cc1 (stereo not drawn) [Cmpd 188] | 7.9 | 20 | – |
| CCCOc1ccc(C2C(CNCc3ccccc3)c3ccccc3CN2CCCCC(N)CN)cc1 (stereo not drawn) [Cmpd 189] | 0.869 | 2.31 | – |
| CCCOc1ccc(C2C(CNCc3ccccc3)c3ccccc3CN2CCCCC(CN)NCCc2ccccc2)cc1 (stereo not drawn) [Cmpd 190] | 1.44 | 5.42 | – |
| CCCOc1ccc(C2C(CNCc3ccccc3)c3ccccc3CN2CCCCC(CN)NCc2ccccc2)cc1 (stereo not drawn) [Cmpd 191] | 1.95 | 5.53 | – |
| CCCOc1ccc(C2C(CNC3CCCCCC3)c3ccccc3CN2CCCCC(N)CN)cc1 (stereo not drawn) [Cmpd 193] | 1.64 | 6.59 | – |
| CCCOc1ccc(C2C(CNC3CCCCCC3)c3ccccc3CN2CCCCC(CN)NCCc2ccccc2)cc1 (stereo not drawn) [Cmpd 194] | 3.86 | 5.09 | – |
| CCCOc1ccc(C2C(CNC3CCCCCC3)c3ccccc3CN2CCCCC(CN)NCc2ccccc2)cc1 (stereo not drawn) [Cmpd 195] | 1.38 | 4.07 | – |
| CCCOc1ccc(C2C(CNC3CCCCCC3)c3ccccc3CN2CCCCC(CN)NCC(C)c2ccc(CC(C)C)cc2)cc1 (stereo not drawn) [Cmpd 196] | 13.3 | 37 | – |
| CCCOc1ccc(C2C(CNC3CCCCC3)c3ccccc3CN2CCCCC(N)CN)cc1 (stereo not drawn) [Cmpd 197] | 0.419 | 12.6 | – |
| CCCOc1ccc(C2C(CNC3CCCCC3)c3ccccc3CN2CCCCC(CN)NCCc2ccccc2)cc1 (stereo not drawn) [Cmpd 198] | 3 | 3.68 | – |
| CCCOc1ccc(C2C(CNC3CCCCC3)c3ccccc3CN2CCCCC(CN)NCc2ccccc2)cc1 (stereo not drawn) [Cmpd 199] | 1.29 | 5.15 | – |
| CCCOc1ccc(C2C(CNC3CCCCC3)c3ccccc3CN2CCCCC(CN)NCC(C)c2ccc(CC(C)C)cc2)cc1 (stereo not drawn) [Cmpd 200] | 7.59 | 16.8 | – |
| NCC(N)CCCCN1Cc2ccccc2C(CNCc2ccccc2C(F)(F)F)C1c1ccccc1Br (stereo not drawn) [Cmpd 201] | – | – | MC-1 IC50 ([1]; TRG 2414 library): no fit; MC-4 IC50 ([2]; TRG 2414 library): no fit |
| NCC(CCCCN1Cc2ccccc2C(CNCc2ccccc2C(F)(F)F)C1c1ccccc1Br)NCCc1ccccc1 (stereo not drawn) [Cmpd 202] | 21.8 | 34.1 | – |
| NCC(CCCCN1Cc2ccccc2C(CNCc2ccccc2C(F)(F)F)C1c1ccccc1Br)NCc1ccccc1 (stereo not drawn) [Cmpd 203] | 30.2 | 39.6 | – |
| CC(C)Cc1ccc(C(C)CNC(CN)CCCCN2Cc3ccccc3C(CNCc3ccccc3C(F)(F)F)C2c2ccccc2Br)cc1 (stereo not drawn) [Cmpd 204] | – | – | MC-1 IC50 ([1]; TRG 2414 library): no fit; MC-4 IC50 ([2]; TRG 2414 library): no fit |
| CCOc1ccccc1CNCC1c2ccccc2CN(CCCCC(CN)NCCc2ccccc2)C1c1ccccc1Br (stereo not drawn) [Cmpd 206] | 7.04 | 6.2 | – |

| SMILES | IC50 ([1]; TRG 2414 library) [µM] | IC50 ([2]; TRG 2414 library) [µM] | also measured |
| --- | --- | --- | --- |
| CCOc1ccccc1CNCC1c2ccccc2CN(CCCCC(CN)NCc2ccccc2)C1c1ccccc1Br (stereo not drawn) [Cmpd 207] | 7.67 | 6.43 | – |
| CCOc1ccccc1CNCC1c2ccccc2CN(CCCCC(CN)NCC(C)c2ccc(CC(C)C)cc2)C1c1ccccc1Br (stereo not drawn) [Cmpd 208] | 34.4 | 21.1 | – |
| COc1ccccc1CCNCC1c2ccccc2CN(CCCCC(N)CN)C1c1ccccc1Br (stereo not drawn) [Cmpd 209] | 1.71 | 1.37 | – |
| COc1ccccc1CCNCC1c2ccccc2CN(CCCCC(CN)NCCc2ccccc2)C1c1ccccc1Br (stereo not drawn) [Cmpd 210] | 3.7 | 4.43 | – |
| COc1ccccc1CCNCC1c2ccccc2CN(CCCCC(CN)NCc2ccccc2)C1c1ccccc1Br (stereo not drawn) [Cmpd 211] | 3.56 | 4.21 | – |
| COc1ccccc1CCNCC1c2ccccc2CN(CCCCC(CN)NCC(C)c2ccc(CC(C)C)cc2)C1c1ccccc1Br (stereo not drawn) [Cmpd 212] | 18.3 | 16.6 | – |
| NCC(N)CCCCN1Cc2ccccc2C(CNCCc2cccc(Cl)c2)C1c1ccccc1Br (stereo not drawn) [Cmpd 213] | 6.48 | 2.06 | – |
| NCC(CCCCN1Cc2ccccc2C(CNCCc2cccc(Cl)c2)C1c1ccccc1Br)NCCc1ccccc1 (stereo not drawn) [Cmpd 214] | 7.38 | 4.76 | – |
| NCC(CCCCN1Cc2ccccc2C(CNCCc2cccc(Cl)c2)C1c1ccccc1Br)NCc1ccccc1 (stereo not drawn) [Cmpd 215] | 8.51 | 6.43 | – |
| CC(C)Cc1ccc(C(C)CNC(CN)CCCCN2Cc3ccccc3C(CNCCc3cccc(Cl)c3)C2c2ccccc2Br)cc1 (stereo not drawn) [Cmpd 216] | 48.3 | 39 | – |
| COc1cccc(CNCC2c3ccccc3CN(CCCCC(N)CN)C2c2ccccc2Br)c1 (stereo not drawn) [Cmpd 217] | 5.56 | 2.42 | – |
| COc1cccc(CNCC2c3ccccc3CN(CCCCC(CN)NCCc3ccccc3)C2c2ccccc2Br)c1 (stereo not drawn) [Cmpd 218] | 8.2 | 10.8 | – |
| COc1cccc(CNCC2c3ccccc3CN(CCCCC(CN)NCc3ccccc3)C2c2ccccc2Br)c1 (stereo not drawn) [Cmpd 219] | 10.3 | 9.59 | – |
| COc1cccc(CNCC2c3ccccc3CN(CCCCC(CN)NCC(C)c3ccc(CC(C)C)cc3)C2c2ccccc2Br)c1 (stereo not drawn) [Cmpd 220] | 40.6 | 35.1 | – |
| COc1ccc(CNCC2c3ccccc3CN(CCCCC(N)CN)C2c2ccccc2Br)cc1 (stereo not drawn) [Cmpd 221] | 6.61 | 1.83 | – |
| COc1ccc(CNCC2c3ccccc3CN(CCCCC(CN)NCCc3ccccc3)C2c2ccccc2Br)cc1 (stereo not drawn) [Cmpd 222] | 5.05 | 4.78 | – |
| COc1ccc(CNCC2c3ccccc3CN(CCCCC(CN)NCc3ccccc3)C2c2ccccc2Br)cc1 (stereo not drawn) [Cmpd 223] | 10.6 | 8.22 | – |
| COc1ccc(CNCC2c3ccccc3CN(CCCCC(CN)NCC(C)c3ccc(CC(C)C)cc3)C2c2ccccc2Br)cc1 (stereo not drawn) [Cmpd 224] | 31.5 | 22.7 | – |
| COc1ccc(CCNCC2c3ccccc3CN(CCCCC(N)CN)C2c2ccccc2Br)cc1 (stereo not drawn) [Cmpd 225] | 4.52 | 2.04 | – |
| COc1ccc(CCNCC2c3ccccc3CN(CCCCC(CN)NCCc3ccccc3)C2c2ccccc2Br)cc1 (stereo not drawn) [Cmpd 226] | 5.17 | 3.42 | – |
| COc1ccc(CCNCC2c3ccccc3CN(CCCCC(CN)NCc3ccccc3)C2c2ccccc2Br)cc1 (stereo not drawn) [Cmpd 227] | 4.49 | 3.71 | – |
| COc1ccc(CCNCC2c3ccccc3CN(CCCCC(CN)NCC(C)c3ccc(CC(C)C)cc3)C2c2ccccc2Br)cc1 (stereo not drawn) [Cmpd 228] | 17.7 | 8.79 | – |
| NCC(N)CCCCN1Cc2ccccc2C(CNCc2ccccc2)C1c1ccccc1Br (stereo not drawn) [Cmpd 229] | 8.63 | 1.29 | – |
| NCC(CCCCN1Cc2ccccc2C(CNCc2ccccc2)C1c1ccccc1Br)NCCc1ccccc1 (stereo not drawn) [Cmpd 230] | 6.48 | 5.46 | – |
| NCC(CCCCN1Cc2ccccc2C(CNCc2ccccc2)C1c1ccccc1Br)NCc1ccccc1 (stereo not drawn) [Cmpd 231] | 11 | 9.13 | – |

Reference: patent publication US6608082B1, “Treatment of erectile dysfunction using isoquinoline compound melanocortin receptor ligands” (Lion Bioscience AG, priority 1998, dated 2003)
